Literature values in patent publication US20160165928A1, “METHODS OF REDUCING METHANE EMISSION DERIVED FROM RUMINAL FERMENTATION WHILE SIMULTANEOUSLY REDUCING RISK OF NITRATE INTOXICATION” (Grasp Indústria e Comércio Ltda., priority 2011, published 2016).

Legend:
[1] = system: methane produced by rumen fermentation; details: in vivo
[2] = system: ruminal accumulation of nitrite; details: in vivo

SMILES | methane emission in ruminants [1] | ruminal accumulation of nitrite [2] | other results
O=[N+]([O-])[O-].O=[N+]([O-])[O-].[Ca+2] [calcium nitrate] | reduced methane emission | – | –
O=S(=O)([O-])[O-].[Cu+2] [copper sulfate] | – | reduction of ruminal accumulation of nitrite | intoxication risks [2]: minimization of intoxication risks
O=S(=O)([O-])[O-].[Mg+2] [magnesium sulfate] | – | reduction of ruminal accumulation of nitrite | –
O=[N+]([O-])[O-].[K+] [potassium nitrate] | reduced methane emission | – | –
O=[N+]([O-])[O-].[Na+] [sodium nitrate] | reduced methane emission | – | –
O=S(=O)([O-])[O-].[Na+].[Na+] [sodium sulfate] | – | reduction of ruminal accumulation of nitrite | –
[Na+].[Na+].[O]=[W](=[O])([O-])[O-] [sodium tungstate] | – | – | inhibition of nitrate reductase (nitrate reductase): inhibit nitrate reductase
